# Experimental data from PubChem BioAssay (NCI).
#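 48-hour exposure; five concentrations; linearly interpolated endpoints. GI50: concentration for 50% inhibition of growth. Definition used: TGI = concentration required for complete inhibition of growth.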
# What was measured:
# Assay in all cases: inhibition of tumour cell growth, NCI panel, 48 h
# SNB-19 CNS = tested on: SNB-19 CNS
# NCI-H226 lung = tested on: NCI-H226 lung
# TK-10 renal = tested on: TK-10 renal
# HT29 colon = tested on: HT29 colon
# HOP-92 NSCLC = tested on: HOP-92 NSCLC
# HCT-15 colon = tested on: HCT-15 colon
# ACHN renal = tested on: ACHN renal
# HL-60(TB) leukemia = tested on: HL-60(TB) leukemia
# HCT-116 colon = tested on: HCT-116 colon
# U251 CNS = tested on: U251 CNS
SMILES,TGI (SNB-19 CNS) [µM],TGI (NCI-H226 lung) [µM],TGI (TK-10 renal) [µM],TGI (HT29 colon) [µM],TGI (HOP-92 NSCLC) [µM],TGI (HCT-15 colon) [µM],TGI (ACHN renal) [µM],TGI (HL-60(TB) leukemia) [µM],TGI (HCT-116 colon) [µM],TGI (U251 CNS) [µM],GI50 (NCI-H226 lung) [µM],GI50 (HT29 colon) [µM],GI50 (HOP-92 NSCLC) [µM],GI50 (HCT-15 colon) [µM],GI50 (HL-60(TB) leukemia) [µM],GI50 (HCT-116 colon) [µM],GI50 (U251 CNS) [µM]
CC1=NN(c2nc(N)nc(CO)n2)C(C)(C)C1,> 100,> 100,> 100,> 100,> 100,> 100,> 100,> 100,> 100,> 100,–,–,–,–,–,–,–
Cc1cccc2c(=O)c3c(O)cc(O)cc3n(C)c12,> 100,> 100,> 100,> 100,> 100,> 100,> 100,> 100,> 100,> 100,–,–,–,–,–,–,–
O=C1NC(N2CCCC(CO)C2)=N/C1=C\c1cccs1 (centres undefined),> 100,> 100,> 100,> 100,> 100,> 100,> 100,> 100,> 100,> 100,–,–,–,–,–,–,–
Nc1nc(SCc2ccccc2Cl)c2ncn(C3OC(CO)C(O)C3O)c2n1 (centres undefined),> 100,–,> 100,> 100,> 100,> 100,> 100,> 100,> 100,> 100,–,–,–,–,–,–,–
NC(CCC(=O)c1ccccn1)C(=O)O (centres undefined),> 100,> 100,> 100,> 100,> 100,> 100,> 100,> 100,> 100,> 100,–,–,–,–,–,–,–
CC(=O)OC1CCn2c1nc1cc([N+](=O)[O-])c(C)cc12 (centres undefined),> 100,> 100,–,> 100,> 100,> 100,> 100,> 100,> 100,> 100,–,–,–,–,–,–,–
NC(Cc1ccccc1)C(=O)OCN1C(=O)C2C3C=CC(C2C1=O)C1C(=O)N(COC(=O)C(N)Cc2ccccc2)C(=O)C31 (centres undefined),> 100,> 100,> 100,39.7,–,78.4,> 100,37.8,> 100,> 100,–,–,–,–,–,–,–
CC(=O)Oc1ccc2cc(Oc3cc(Cl)c(Cl)cc3Cl)c(=O)oc2c1,81.2,36.7,74.5,30.5,48,26.3,50.5,68.8,28.1,32.5,–,–,–,–,–,–,–
COc1cccc(NC(=O)CC(=O)NN)c1,> 100,> 100,> 100,> 100,> 100,> 100,> 100,> 100,> 100,> 100,–,–,–,–,–,–,–
[CH3][Sn]([CH3])([CH3])[S]C(=S)N1CCOCC1,–,17,–,1.5,6.48,> 100,–,1.3,2.03,11.4,2.72,0.28,1.84,1.81,0.217,0.146,2.82
S=c1ncc(-c2cncc(-c3cnc(=S)[nH]c3)n2)c[nH]1,> 100,> 100,> 100,> 100,> 100,> 100,> 100,> 100,> 100,> 100,–,–,–,–,–,–,–
Nc1nc(N)c2nc(CN(C=O)c3ccc(C(=O)O)cc3)cnc2n1,> 100,> 100,> 100,> 100,> 100,> 100,> 100,> 100,> 100,> 100,–,–,–,–,–,–,–
NC1=Nc2cc(C(F)(F)F)ccc2Sc2nc3ccccc3n21,> 100,> 87.5,> 100,> 100,80.4,> 100,> 100,> 26,> 100,> 100,–,–,–,–,–,–,–
CC1(C)N=C(C(N)=O)c2[nH]cnc2N1,> 100,> 100,> 100,> 100,> 100,> 100,> 100,> 100,> 100,> 100,–,–,–,–,–,–,–
C[N+]1(C)CCCC(C#N)(c2ccccc2)CC1 (centres undefined),> 100,–,> 100,> 100,> 100,> 100,> 100,> 100,> 100,> 100,–,–,–,–,–,–,–
CCOC(=O)C1=C(O)CC(=O)N=C1N1CCCC1,> 100,> 100,> 100,> 100,> 100,> 100,> 100,> 100,> 100,> 100,–,–,–,–,–,–,–
CC1CC(=O)N(N(C)C)C2(C#N)C(=O)N=C(N)C12C#N (centres undefined),> 100,–,> 100,> 100,> 100,> 100,> 100,51.7,> 100,> 100,–,–,–,–,–,–,–
C/C(=C\C(=O)Nc1ccc2n[nH]nc2c1)Nc1ccc2n[nH]nc2c1,> 100,> 100,> 100,> 100,> 100,> 100,> 100,> 100,> 100,> 100,–,–,–,–,–,–,–
CO[C@@]12C[C@H](CNC(=O)c3ccc[nH]3)O[C@@H]1NC(=O)N2,> 100,> 100,> 100,> 100,> 100,> 100,> 100,> 100,> 100,> 100,–,–,–,–,–,–,–
COC(=O)c1ccccc1CC1Cc2c(C)ccc(C)c2C1=O (centres undefined),> 100,> 100,71.2,61.6,54.4,> 100,> 100,55.6,56,> 100,–,–,–,–,–,–,–
c1ccc(C(Oc2noc3ccccc23)c2ccccc2)cc1,> 100,> 100,> 100,> 100,> 100,> 100,> 100,61.3,> 100,> 100,–,–,–,–,–,–,–
CCOC(=O)C(C)c1nc2cc(F)c(F)cc2[nH]c1=O (centres undefined),> 100,> 100,> 100,> 100,> 100,> 100,> 100,> 100,> 100,> 100,–,–,–,–,–,–,–
